This test concerns the target alkaline phosphatase (ALP). The test is described as follows: fluorescence enzyme inhibition assay with compd. […] as substrate. The test is classed as biochemical.

One compound from publication PMC12400448 (Chemical Science, 2025) can be followed below.

The structures appear in SMILES notation.

The compound `[O]=[V]([OH])([OH])[OH]` [sodium orthovanadate] registered a concentration for half-maximal inhibition (IC50) of 10.2 µM.

As a reminder, the IC50 is the concentration needed to halve the response being measured.
